Biological target: T1, IGF-1R (Homo sapiens, UniProt P08069)
T1 construct: expressed in transfected cells
Assay: Example B-2: IGF-1R Assay (PathHunter cell lines, EC80 agonist challenge, chemiluminescent detection)
Assay type: cell-based
Settings: PathHunter cells, compound 60 minutes at 37° C., EC80 agonist 3 hours; read-out: IC50, Biological Activity against IGF-1R (Table B2)
Outline: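 PathHunter cells were pre-incubated with compound for 60 min at 37° C (1% vehicle), then challenged with EC80 agonist for 3 h at room temperature. Chemiluminescent detection after 1 h gave % inhibition relative to EC80 and vehicle controls, from which IC50 was derived.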

T1 sequence (P08069 31-1367): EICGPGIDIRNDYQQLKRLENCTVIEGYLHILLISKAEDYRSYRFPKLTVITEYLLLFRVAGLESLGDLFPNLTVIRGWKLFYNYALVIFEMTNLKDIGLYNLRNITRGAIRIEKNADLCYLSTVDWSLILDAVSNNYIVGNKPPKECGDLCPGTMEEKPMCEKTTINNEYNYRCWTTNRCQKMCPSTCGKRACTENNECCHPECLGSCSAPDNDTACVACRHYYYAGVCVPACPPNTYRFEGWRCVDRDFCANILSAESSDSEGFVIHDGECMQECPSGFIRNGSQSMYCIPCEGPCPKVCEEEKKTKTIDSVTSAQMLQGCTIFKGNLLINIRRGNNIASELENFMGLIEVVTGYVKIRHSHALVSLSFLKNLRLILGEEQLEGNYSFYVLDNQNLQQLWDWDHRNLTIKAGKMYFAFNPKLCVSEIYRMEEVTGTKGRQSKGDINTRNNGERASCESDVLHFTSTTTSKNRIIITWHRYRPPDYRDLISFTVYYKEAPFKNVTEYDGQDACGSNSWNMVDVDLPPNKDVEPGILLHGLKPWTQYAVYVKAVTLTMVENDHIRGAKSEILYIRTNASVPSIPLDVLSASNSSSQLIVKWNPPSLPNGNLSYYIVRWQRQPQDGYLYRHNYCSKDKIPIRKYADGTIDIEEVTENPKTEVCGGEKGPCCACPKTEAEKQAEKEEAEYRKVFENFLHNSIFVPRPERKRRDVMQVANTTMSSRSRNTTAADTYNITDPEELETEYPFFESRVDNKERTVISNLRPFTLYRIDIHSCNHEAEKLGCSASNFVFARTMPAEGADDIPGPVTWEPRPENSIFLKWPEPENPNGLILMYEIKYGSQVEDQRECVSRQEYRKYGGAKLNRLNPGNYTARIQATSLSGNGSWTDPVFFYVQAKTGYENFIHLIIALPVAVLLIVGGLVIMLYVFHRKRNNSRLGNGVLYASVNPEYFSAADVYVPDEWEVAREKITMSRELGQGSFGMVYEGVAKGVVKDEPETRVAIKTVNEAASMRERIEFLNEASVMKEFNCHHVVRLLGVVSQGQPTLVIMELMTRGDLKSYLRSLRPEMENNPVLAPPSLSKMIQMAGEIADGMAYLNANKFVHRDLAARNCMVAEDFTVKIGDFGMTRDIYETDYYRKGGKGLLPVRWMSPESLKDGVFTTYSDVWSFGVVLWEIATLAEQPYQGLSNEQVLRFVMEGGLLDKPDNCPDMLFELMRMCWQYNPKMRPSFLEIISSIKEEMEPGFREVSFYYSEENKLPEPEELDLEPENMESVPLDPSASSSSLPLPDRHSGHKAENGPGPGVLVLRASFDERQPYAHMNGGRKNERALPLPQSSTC

Compound	IC50 [nM]
C[C@H](CC#N)Nc1cc(CN2C(=O)N(c3ccc(C4(C(F)(F)F)CC4)cc3)C(=O)C2(C)C)ccn1 [Compound 147, (R)-3-((4-((5,5-dimethyl-2,4-dioxo-3-(4-(1-(trifluoromethyl)cyclopropyl)phenyl)imidazolidin-1-yl)methyl)pyridin-2-yl)amino)butanenitrile]	≤ 500
CC1(C)C(=O)N(c2ccc(C3(C(F)(F)F)CC3)cc2)C(=O)N1Cc1ccnc(N[C@H]2[C@@H]3COC[C@@H]32)c1 [Compound 148, 1-((2-(((1R,5S,6r)-3-oxabicyclo[3.1.0]hexan-6-yl)amino)pyridin-4-yl)methyl)-5,5-dimethyl-3-(4-(1-(trifluoromethyl)cyclopropyl)phenyl) imidazolidine-2,4-dione]	≤ 500
CC(C)(C#N)c1ccc(N2C(=O)N(Cc3ccnc(NC4CC4)c3)C(C)(C)C2=O)cc1 [Compound 149, 2-(4-(3-((2-(cyclopropylamino)pyridin-4-yl)methyl)-4,4-dimethyl-2,5-dioxoimidazolidin-1-yl)phenyl)-2-methylpropanenitrile]	≤ 500
COC[C@@H](C)Nc1cc(CN2C(=O)N(c3ccc(C(C)(C)C#N)cc3)C(=O)C2(C)C)ccn1 [Compound 150, (R)-2-(4-(3-((2-((1-methoxypropan-2-yl)amino)pyridin-4-yl)methyl)-4,4-dimethyl-2,5-dioxoimidazolidin-1-yl)phenyl)-2-methylpropanenitrile]	≤ 500
C[C@@H](CC#N)Nc1cc(CN2C(=O)N(c3ccc(C(C)(C)C#N)cc3)C(=O)C2(C)C)ccn1 [Compound 151, (S)-3-((4-((3-(4-(2-cyanopropan-2-yl)phenyl)-5,5-dimethyl-2,4-dioxoimidazolidin-1-yl)methyl)pyridin-2-yl)amino)butanenitrile]	500 to 2000
CC(C)(C#N)c1ccc(N2C(=O)N(Cc3ccnc(N[C@H]4CCOC4)c3)C(C)(C)C2=O)cc1 [Compound 152, (S)-2-(4-(4,4-dimethyl-2,5-dioxo-3-((2-((tetrahydrofuran-3-yl)amino)pyridin-4-yl)methyl)imidazolidin-1-yl)phenyl)-2-methylpropanenitrile]	500 to 2000
CC(C)(C#N)c1ccc(N2C(=O)N(Cc3ccnc(NC4CCOCC4)c3)C(C)(C)C2=O)cc1 [Compound 153, 2-(4-(4,4-dimethyl-2,5-dioxo-3-((2-((tetrahydro-2H-pyran-4-yl)amino)pyridin-4-yl)methyl)imidazolidin-1-yl)phenyl)-2-methylpropanenitrile]	≤ 500
CC(C)(C#N)c1ccc(N2C(=O)N(Cc3ccnc(NCC(F)F)c3)C(C)(C)C2=O)cc1 [Compound 154, 2-(4-(3-((2-((2,2-difluoroethyl)amino)pyridin-4-yl)methyl)-4,4-dimethyl-2,5-dioxoimidazolidin-1-yl)phenyl)-2-methylpropanenitrile]	500 to 2000
CC1(Nc2cc(CN3C(=O)N(c4ccc(C(C)(C)C#N)cc4)C(=O)C3(C)C)ccn2)CC1 [Compound 155, 2-(4-(4,4-dimethyl-3-((2-((1-methylcyclopropyl)amino)pyridin-4-yl)methyl)-2,5-dioxoimidazolidin-1-yl)phenyl)-2-methylpropanenitrile]	≤ 500
COCCC(C)Nc1cc(CN2C(=O)N(c3ccc(C(C)(C)C#N)cc3)C(=O)C2(C)C)ccn1 (stereo not drawn) [Compound 156, 2-(4-(3-((2-((4-methoxybutan-2-yl)amino)pyridin-4-yl)methyl)-4,4-dimethyl-2,5-dioxoimidazolidin-1-yl)phenyl)-2-methylpropanenitrile]	≤ 500
CCOC[C@H](C)Nc1cc(CN2C(=O)N(c3ccc(C4(C(F)(F)F)CC4)cc3)C(=O)C2(C)C)ccn1 [Compound 157, (S)-1-((2-((1-ethoxypropan-2-yl)amino)pyridin-4-yl)methyl)-5,5-dimethyl-3-(4-(1-(trifluoromethyl)cyclopropyl)phenyl) imidazolidine-2,4-dione]	≤ 500
CC(C)OC[C@H](C)Nc1cc(CN2C(=O)N(c3ccc(C4(C(F)(F)F)CC4)cc3)C(=O)C2(C)C)ccn1 [Compound 158, (S)-1-((2-((1-isopropoxypropan-2-yl)amino)pyridin-4-yl)methyl)-5,5-dimethyl-3-(4-(1-(trifluoromethyl)cyclopropyl)phenyl) imidazolidine-2,4-dione]	500 to 2000
COCC1(Nc2cc(CN3C(=O)N(c4ccc(C5(C(F)(F)F)CC5)cc4)C(=O)C3(C)C)ccn2)CC1 [Compound 159, 1-((2-((1-(methoxymethyl)cyclopropyl)amino)pyridin-4-yl)methyl)-5,5-dimethyl-3-(4-(1-(trifluoromethyl)cyclopropyl)phenyl) imidazolidine-2,4-dione]	≤ 500
CC1(C)C(=O)N(c2ccc(C3(C(F)(F)F)CC3)cc2)C(=O)N1Cc1ccnc(NCC2(C#N)CC2)c1 [Compound 160, 1-(((4-((5,5-dimethyl-2,4-dioxo-3-(4-(1-(trifluoromethyl)cyclopropyl)phenyl)imidazolidin-1-yl)methyl)pyridin-2-yl)amino)methyl)cyclopropane-1-carbonitrile]	≤ 500
CC1(C)C(=O)N(c2ccc(C3(C(F)(F)F)CC3)cc2)C(=O)N1Cc1ccnc(NC2CCc3cn[nH]c3C2)c1 (stereo not drawn) [Compound 161, 5,5-dimethyl-1-((2-((4,5,6,7-tetrahydro-1H-indazol-6-yl)amino)pyridin-4-yl)methyl)-3-(4-(1-(trifluoromethyl)cyclopropyl)phenyl) imidazolidine-2,4-dione]	≤ 500
CC(C)(C#N)c1ccc(N2C(=O)N(Cc3ccnc(N[C@H]4[C@@H]5COC[C@@H]54)c3)C(C)(C)C2=O)cc1 [Compound 162, 2-(4-(3-((2-(((1R,5S,6r)-3-oxabicyclo[3.1.0]hexan-6-yl)amino)pyridin-4-yl)methyl)-4,4-dimethyl-2,5-dioxoimidazolidin-1-yl)phenyl)-2-methylpropanenitrile]	≤ 500
COC(C)CNc1cc(CN2C(=O)N(c3ccc(C4(C(F)(F)F)CC4)cc3)C(=O)C2(C)C)ccn1 (stereo not drawn) [Compound 163, 1-((2-((2-methoxypropyl)amino)pyridin-4-yl)methyl)-5,5-dimethyl-3-(4-(1-(trifluoromethyl)cyclopropyl)phenyl) imidazolidine-2,4-dione]	≤ 500
CC1(C)C(=O)N(c2ccc3c(c2)N(S(C)(=O)=O)CC32CC2(C)C)C(=O)N1Cc1ccnc(N[C@H]2[C@@H]3COC[C@@H]32)c1 (stereo partly drawn) [Compound 164, 1-((2-(((1R,5S,6r)-3-oxabicyclo[3.1.0]hexan-6-yl)amino)pyridin-4-yl)methyl)-3-(2,2-dimethyl-1′-(methylsulfonyl)spiro[cyclopropane-1,3′-indolin]-6′-yl)-5,5-dimethylimidazolidine-2,4-dione]	≤ 500
CC(Nc1cc(CN2C(=O)N(c3ccc(C4(C(F)(F)F)CC4)cc3)C(=O)C2(C)C)ccn1)c1cccnc1 (stereo not drawn) [Compound 165, 5,5-dimethyl-1-((2-((1-(pyridin-3-yl)ethyl)amino)pyridin-4-yl)methyl)-3-(4-(1-(trifluoromethyl)cyclopropyl)phenyl)imidazolidine-2,4-dione]	≤ 500
CC1(C)C(=O)N(c2ccc(C3(C(F)(F)F)CC3)cc2)C(=O)N1Cc1ccnc(NS(C)(=O)=O)c1 [Compound 166, N-(4-((5,5-dimethyl-2,4-dioxo-3-(4-(1-(trifluoromethyl)cyclopropyl)phenyl)imidazolidin-1-yl)methyl)pyridin-2-yl)methanesulfonamide]	500 to 2000
CC(Nc1cc(CN2C(=O)N(c3ccc(C4(C(F)(F)F)CC4)cc3)C(=O)C2(C)C)ccn1)c1cnn(C)c1 (stereo not drawn) [Compound 167, 5,5-dimethyl-1-((2-((1-(1-methyl-1H-pyrazol-4-yl)ethyl)amino)pyridin-4-yl)methyl)-3-(4-(1-(trifluoromethyl)cyclopropyl)phenyl) imidazolidine-2,4-dione]	≤ 500
CC(Nc1cc(CN2C(=O)N(c3ccc(C4(C(F)(F)F)CC4)cc3)C(=O)C2(C)C)ccn1)c1cnccn1 (stereo not drawn) [Compound 168, 5,5-dimethyl-1-((2-((1-(pyrazin-2-yl)ethyl)amino)pyridin-4-yl)methyl)-3-(4-(1-(trifluoromethyl)cyclopropyl)phenyl) imidazolidine-2,4-dione]	≤ 500
Cn1cc(CNc2cc(CN3C(=O)N(c4ccc(C5(C(F)(F)F)CC5)cc4)C(=O)C3(C)C)ccn2)cn1 [Compound 169, 5,5-dimethyl-1-((2-(((1-methyl-1H-pyrazol-4-yl)methyl)amino)pyridin-4-yl)methyl)-3-(4-(1-(trifluoromethyl)cyclopropyl)phenyl) imidazolidine-2,4-dione]	≤ 500
CC1(C)C(=O)N(c2ccc(C3(C#N)CC3(C)C)cc2)C(=O)N1Cc1ccnc(N[C@H]2[C@@H]3COC[C@@H]32)c1 (stereo partly drawn) [Compound 170, 1-(4-(3-((2-(((1R,5S,6r)-3-oxabicyclo[3.1.0]hexan-6-yl)amino)pyridin-4-yl)methyl)-4,4-dimethyl-2,5-dioxoimidazolidin-1-yl)phenyl)-2,2-dimethylcyclopropane-1-carbonitrile]	≤ 500
CC1(C)C(=O)N(c2ccc(C3(C(F)(F)F)CC3)cc2)C(=O)N1Cc1ccnc(NCc2cn[nH]c2)c1 [Compound 171, 1-((2-(((1H-pyrazol-4-yl)methyl)amino)pyridin-4-yl)methyl)-5,5-dimethyl-3-(4-(1-(trifluoromethyl)cyclopropyl)phenyl) imidazolidine-2,4-dione]	≤ 500
CNS(=O)(=O)c1ccc(CNc2cc(CN3C(=O)N(c4ccc(C5(C(F)(F)F)CC5)cc4)C(=O)C3(C)C)ccn2)cc1 [Compound 172, 4-(((4-((5,5-dimethyl-2,4-dioxo-3-(4-(1-(trifluoromethyl)cyclopropyl)phenyl)imidazolidin-1-yl)methyl)pyridin-2-yl)amino)methyl)-N-methylbenzenesulfonamide]	≤ 500
CC1(C)C(=O)N(c2ccc(C3(C(F)(F)F)CC3)cc2)C(=O)N1Cc1ccnc(NCc2ncc[nH]2)c1 [Compound 173, 1-((2-(((1H-imidazol-2-yl)methyl)amino)pyridin-4-yl)methyl)-5,5-dimethyl-3-(4-(1-(trifluoromethyl)cyclopropyl)phenyl) imidazolidine-2,4-dione]	≤ 500

— US20250145585A1, “HETEROCYCLIC INHIBITORS OF IGF-1R FOR TREATMENT OF DISEASE” (HORIZON THERAPEUTICS IRELAND DAC, priority 2023, published 2025)
